Here are results for 1 molecule from patent US11059800B2, “Dehydroleucodine derivatives and uses thereof” (Bioventures, LLC, priority 2013, dated 2021).

Data set [1] relates to eight human leukemia cell lines.
Experimental: Cell lines were cultured in Iscove's Modified Dulbecco's Medium (IMDM) supplemented with 10%˜20% fetal bovine serum (FBS) according to culture conditions indicated by ATCC and 1% penicillin/streptomycin (Pen/Strep) at 37° C. and 5% CO2. The cells were seeded into 96-well plates and kept at a concentration of 0.5 million cells per mL. […] Cell viability was determined after incubating for 48 hours. The cells were stained with annexin V-fluorescein isothiocyanate or phycoeritrine (FITC/PE) and 7-aminoactinomycin (7-AAD) to detect phosphatidylserine exposition and cell permeability, respectively. At least 50,000 events were recorded per condition on either an LSR-II or LSR-Fortessa flow cytometer (BD Biosciences). Data analysis was conducted using FlowJo 9.6 software for Mac OS X (TreeStar). Cells that were negative for annexin V and 7-AAD were scored as viable.
The test system of the next data set is THP-1. The data set is described as follows: Cytotoxicity, annexin V/7-AAD viability by flow cytometry, THP-1. It counts as cell-based, human. The settings on record: THP-1, 48 hours, drug range tested 1.25-160 μM. As for the experimental part: (§1) In order to assess the structure-activity relationship of DHL and its derivatives, DHL and its derivatives were evaluated against eight human leukemia cell lines. Cell lines were cultured in Iscove's Modified Dulbecco's Medium (IMDM) supplemented with 10%˜20% fetal bovine serum (FBS) according to culture conditions indicated by ATCC and 1% penicillin/streptomycin (Pen/Strep) at 37° C. and 5% CO2. The cells were seeded into 96-well plates and kept at a concentration of 0.5 million cells per mL. The samples were treated with DHL, Leucodine, DHL-Morpholine, DHL-Proline, DHL-Piperidine, and PTL at varying concentrations in triplicates. Cell viability was determined after incubating for 48 hours. The cells were stained with annexin V-fluorescein isothiocyanate or phycoeritrine (FITC/PE) and 7-aminoactinomycin (7-AAD) to detect phosphatidylserine exposition and cell permeability, respectively. At least 50,000 events were recorded per condition on either an LSR-II or LSR-Fortessa flow cytometer (BD Biosciences). Data analysis was conducted using FlowJo 9.6 software for Mac OS X (TreeStar). Cells that were negative for annexin V and 7-AAD were scored as viable.

Data set [2] relates to normal bone marrow and peripheral blood mononuclear cells. The conditions noted are these: 20 μM, 48 hours, AML n=8 vs normal n=4, Mann-Whitney p=0.004. As for the experimental part:
as §1, with “The” for “In order to assess the structure-activity relationship of DHL and its derivatives, DHL and its derivatives were evaluated against eight human leukemia cell lines. Cell lines were cultured in Iscove's Modified Dulbecco's Medium (IMDM) supplemented with 10%˜20% fetal bovine serum (FBS) according to culture conditions indicated by ATCC and 1% penicillin/streptomycin (Pen/Strep) at 37° C. and 5% CO2. The”

The next data set has as its system HMOX1 (Heme oxygenase 1). The experiment in a line: Quantitative PCR of HMOX1 in MOLM-13 or MV-411 cells. In kind it is cell-based. The settings on record: 20 μM, 6 hours, MOLM-13 and MV-411 cells. Here is the method:
(§2) (FIG. 8A) Graphical representation of the fold changes of HMOX-1 in MOLM-13 cells. Cells were seeded at 0.5 million cells per milliliter and subject to 20 μM of DHL, leucodine, DHL-proline, DHL-piperidine, DHL-morpholine, or parthenolide for 6 hours. RNA was then extracted and quantitative PCR was performed. Experiments were performed in triplicates. Lines represent mean for each specimen, with error bars representing the SD. Fold change was calculated by the delta-delta Ct method. […] (FIG. 8D) Immunoblot for MOLM-13 cells after 6 hours of treatment with either DHL or PTL with 10 or 20 μM. Blot was probed for phospho-p65 and p65 antibodies. Total p65 is shown as the loading control.
(§3) (FIG. 9A) Graphical representation of the fold changes of HMOX-1 in MV-411 cells. Cells were seeded at 0.5 million cells per milliliter and subject to 20 μM of DHL, leucodine, DHL-proline, DHL-piperidine, DHL-morpholine, or parthenolide for 6 hours. RNA was then extracted and quantitative PCR was performed. Experiments were performed in triplicates. Lines represent mean for each specimen, with error bars representing the SD. Fold change was calculated by the delta-delta Ct method. (FIG. 9B) Graphical representation of the fold changes of HSPA1A in MV-411 cells, with the same experimental setup and analysis as FIG. […].
(§4) To compare these intracellular effects of DHL and its derivatives, quantitative PCR was performed (FIG. 8 and FIG. 9). MOLM-13 or MV-411 cells were seeded at 0.5 million cells per milliliter. Cells were treated for 6 hours with 20 μM of DHL, Leucodine, DHL-Morpholine, DHL-Proline, DHL-Piperidine or PTL, and then collected. Total RNA was extracted using the Qiashredder and Qiagen Rneasy Mini kits. […] Quantitative PCR was performed using probes for HMOX-1 (Hs01110251_m1), HSPA1A (Hs00359163_s1), and NFKB1 (Hs00765730_m1). […] Single-plex real-time PCR was performed in triplicates in a StepOne plus RealTime PCR system and analyzed with the StepOne Software. Fold change was calculated using the 2-DDCT method described by Livak and Schmittgen.

The next data set relates to SW-620. The experiment in a line: Single dose tumor cell growth inhibition, Colon Cancer SW-620. In kind it is cell-based, human. The conditions noted are these: SW-620, single dose 10 μM. An excerpt: (§5) DHL is cytotoxic to various leukemia, colon cancer, CNS cancer and prostate cancer cell lines.
The test system of a further data set is MV4-11. The data set is described as follows: Cytotoxicity, annexin V/7-AAD viability by flow cytometry, MV4-11. The settings on record: MV4-11, 48 hours, drug range tested 1.25-160 μM. It counts as cell-based, human. Here is the method:
as §1
For orientation: Flow cytometry measures light scatter and fluorescence of single cells or particles in a stream.

For a further data set, the system named is HCT-116. The data set is described as follows: Single dose tumor cell growth inhibition, Colon Cancer HCT-116. In kind it is cell-based, human. The conditions noted are these: HCT-116, single dose 10 μM.
Excerpt: as §5

The test system of the next data set is NF-κB. The experiment in a line: Quantitative PCR of NF-κB transcript in MOLM-13 and MV-411 cells. The settings on record: 20 μM, 6 hours. It counts as cell-based. As for the experimental part:
as §2
as §4, with “collected.” for “collected. Total RNA was extracted using the Qiashredder and Qiagen Rneasy Mini kits.”

In a further data set the test system is HSPA1A. The experiment in a line: Quantitative PCR of HSPA1A in MOLM-13 or MV-411 cells. In kind it is cell-based. The conditions noted are these: 20 μM, 6 hours, MOLM-13 and MV-411 cells. As for the experimental part: as §2, §3, §4
A further data set has as its system NCI/ADR-RES. The experiment in a line: Single dose tumor cell growth inhibition, Ovarian Cancer NCI/ADR-RES. In kind it is cell-based. The settings on record: single dose 10 μM.
Excerpt: as §5

A further data set has as its system CCRF-CEM. The data set is described as follows: Single dose tumor cell growth inhibition, Leukemia CCRF-CEM. It counts as cell-based. The conditions noted are these: single dose 10 μM.
Excerpt: as §5

In the next data set the test system is NCI-H322M. The data set is described as follows: Single dose tumor cell growth inhibition, Non-Small Cell Lung Cancer NCI-H322M. In kind it is cell-based. The conditions noted are these: single dose 10 μM.
Excerpt: as §5

Turning to `C=C1C(=O)O[C@@H]2[C@H]3C(C)=CC(=O)C3=C(C)CC[C@@H]12` [DHL, dehydroleucodine], the “anti-leukemic activity / in vitro cytotoxicity” value in data set [1] is “more potent anti-leukemic activity than PTL in most samples”. Besides, the “LD50 values in the various leukemic cell lines tested” value in [1] (range over the AML cell lines, 48 hours of treatment) lay within 5.02 to 18.95 µM. Further, the figures for the LD50 in the data set on THP-1 and in the data set with MV4-11 were 16.82 µM and 5.02 µM, respectively. Also, the “potency to AML cell lines versus normal mononuclear cells” value in data set [2] is on record as “significantly more potent to the AML cell lines”. Further, the “HMOX1 expression, fold change” value in the data set with HMOX1 (Heme oxygenase 1) is “upregulated”. The Percent inhibition amounted to 30.0% in the data set on SW-620; 41.3% in the data set with HCT-116; 0.0% in the data set on NCI/ADR-RES; 44.9% with CCRF-CEM; 0.0% with NCI-H322M. Also, the “NF-κB transcript levels” value in the data set on NF-κB is “slightly downregulated”. In addition, in the data set with HSPA1A, the “HSPA1A expression, fold change” value is listed as “upregulated”.
